Assay results: patent publication US11053204B2, “Pyrimidinyloxy benzene derivatives as herbicides” (FMC Corporation, priority 2015, dated 2021)

Legend:
Assay type in all cases: in vivo
[1] = tested on: Italian ryegrass (Lolium multiflorum); test: Test A postemergence, visual injury rating
In short: (§1)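 Greenhouse pot test, loam/sand soil. Formulation: non-phytotoxic solvent mix plus surfactant. Pre: directed spray onto soil after sowing. Post: plants at 1–2 leaf, 2–10 cm. Rated visually vs untreated controls at ~10 d, 0 (no effect) to 100 (complete control).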

[2] = tested on: galium (catchweed bedstraw, Galium aparine); test: Test A postemergence, visual injury rating
In short: as §1

[3] = tested on: blackgrass (Alopecurus myosuroides); test: Test A postemergence, visual injury rating
In short: as §1

[4] = tested on: wheat (Triticum aestivum); test: Test A postemergence, visual injury rating
In short: as §1

[5] = tested on: giant foxtail (Setaria faberii); test: Test A postemergence, visual injury rating
In short: as §1

corn (Zea mays) = test: Test A postemergence, visual injury rating
In short: as §1

[6] = tested on: barnyardgrass (Echinochloa crus-galli); test: Test A postemergence, visual injury rating
In short: as §1

kochia (Kochia scoparia) [7] = test: Test A postemergence, visual injury rating
In short: as §1

[8] = tested on: ragweed (common ragweed, Ambrosia elatior); test: Test A postemergence, visual injury rating
In short: as §1

[9] = tested on: pigweed (Amaranthus retroflexus); test: Test A postemergence, visual injury rating
In short: as §1

[10] = tested on: sedge, umbrella (small-flower umbrella sedge, Cyperus difformis); test: Test B flooded paddy test, plant response rating; conditions: 250 g ai/ha, Flood, scale of 0 to 100 where 0 is no effect and 100 is complete control, 13 to 15 days
In short: (§2)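 Pots were flooded to 3 cm above the soil surface at treatment, compound applied directly to the paddy water, and that depth held throughout. Plants were kept in a greenhouse for 13 to 15 days, then visually rated against untreated controls.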

[11] = tested on: barnyardgrass (Echinochloa crus-galli); test: Test B flooded paddy test, plant response rating; conditions: 250 g ai/ha, Flood, scale of 0 to 100 where 0 is no effect and 100 is complete control, 13 to 15 days
In short: as §2

rice (Oryza sativa) = test: Test B flooded paddy test, plant response rating; conditions: 250 g ai/ha, Flood, scale of 0 to 100 where 0 is no effect and 100 is complete control, 13 to 15 days
In short: as §2

[12] = tested on: ducksalad (Heteranthera limosa); test: Test B flooded paddy test, plant response rating; conditions: 250 g ai/ha, Flood, scale of 0 to 100 where 0 is no effect and 100 is complete control, 13 to 15 days
In short: as §2

[13] = tested on: Italian ryegrass (Lolium multiflorum); test: Test A preemergence, visual injury rating
In short: as §1

[14] = tested on: giant foxtail (Setaria faberii); test: Test A preemergence, visual injury rating
In short: as §1

[15] = tested on: barnyardgrass (Echinochloa crus-galli); test: Test A preemergence, visual injury rating
In short: as §1

kochia (Kochia scoparia) [16] = test: Test A preemergence, visual injury rating
In short: as §1

[17] = tested on: ragweed (common ragweed, Ambrosia elatior); test: Test A preemergence, visual injury rating
In short: as §1

[18] = tested on: pigweed (Amaranthus retroflexus); test: Test A preemergence, visual injury rating
In short: as §1

[19] = 31 g ai/ha, 0 to 100 scale (0 no effect, 100 complete control)
[20] = 125 g ai/ha, 0 to 100 scale, 0 is no effect, 100 is complete control, approximately 10 days
[21] = 31 g ai/ha, 0 to 100 scale, 0 is no effect, 100 is complete control, approximately 10 days
[22] = 31 g ai/ha, 0 to 100 scale, 0 no effect, 100 complete control
[23] = 125 g ai/ha, 0 to 100 scale (0 no effect, 100 complete control)

With `CCCCCC(C#N)c1ccccc1Oc1ncc(Cl)cn1` (stereo not drawn) [Compound 141, 2-[(5-chloro-2-pyrmidinyl)oxy]-α-pentylbenzeneacetonitrile] the “Ryegrass, Italian plant response rating” value [1, 19] was 0, the “Ryegrass, Italian plant response rating” value [1, 20] was 10 and the “Galium plant response rating” value [2, 19] was 40. The “Galium plant response rating” value [2, 20] was 60, the “Blackgrass plant response rating” value [3, 19] was 0 and the “Blackgrass plant response rating” value [3, 20] was 10. For the same compound, the “Wheat plant response rating” value [4, 19] was 0, the “Wheat plant response rating” value [4, 20] was 0 and the “Foxtail, Giant plant response rating” value [5, 19] was 20. The “Foxtail, Giant plant response rating” value [5, 20] was 40, the “Corn plant response rating” value (corn (Zea mays); [19]) was 10 and the “Corn plant response rating” value (corn (Zea mays); [20]) was 20. The “Barnyardgrass plant response rating” value [6, 21] was 10, the “Barnyardgrass plant response rating” value [6, 20] was 20 and the “Kochia plant response rating” value (kochia (Kochia scoparia) [7]; [19]) was 50. The “Kochia plant response rating” value (kochia (Kochia scoparia) [7]; [20]) was 60, the “Ragweed plant response rating” value [8, 19] was 0 and the “Ragweed plant response rating” value [8, 20] was 20. For the same compound, the “Pigweed plant response rating” value [9, 19] was 40, the “Pigweed plant response rating” value [9, 20] was 70 and the “Plant response rating, Sedge, Umbrella” value [10] was 50. The “Plant response rating, Barnyardgrass” value [11] was 20, the “Plant response rating, Rice” value (rice (Oryza sativa)) was 10 and the “Plant response rating, Ducksalad” value [12] was 70. For the same compound, the “Plant response rating, Ryegrass, Italian” value [13, 22] was 0, the “Plant response rating, Ryegrass, Italian” value [13, 23] was 10 and the “Plant response rating, Foxtail, Giant” value [14, 22] was 10. The “Plant response rating, Foxtail, Giant” value [14, 23] was 100, the “Plant response rating, Barnyardgrass” value [15, 22] was 0 and the “Plant response rating, Barnyardgrass” value [15, 23] was 60. The “Plant response rating, Kochia” value (kochia (Kochia scoparia) [16]; [22]) was 10, the “Plant response rating, Kochia” value (kochia (Kochia scoparia) [16]; [23]) was 20 and the “Plant response rating, Ragweed” value [17, 22] was 0. For the same compound, the “Plant response rating, Ragweed” value [17, 23] was 30, the “Plant response rating, Pigweed” value [18, 22] was 0 and the “Plant response rating, Pigweed” value [18, 23] was 90.
For `O=C(OCCC(F)(F)F)c1cc(C(F)(F)F)ccc1Oc1ncc(Cl)cn1` [Compound 53], the “Ryegrass, Italian plant response rating” value [1, 21] was 0, the pest or weed control at 125 g/ha ([1]; Lolium multiflorum, post-emergence, 240 h, 125 g ai/ha, 0 is no effect, 100 is complete control, read-out: Ryegrass, Italian plant response rating (0 to 100 scale)) was 0% and the “Galium plant response rating” value [2, 21] was 0. The pest or weed control at 125 g/ha ([2]; Galium, post-emergence, 240 h, 125 g ai/ha, 0 is no effect, 100 is complete control, read-out: Galium plant response rating (0 to 100 scale)) was 0%, the “Blackgrass plant response rating” value [3, 21] was 0 and the pest or weed control at 125 g/ha ([3]; Alopecurus myosuroides, post-emergence, 240 h, 125 g ai/ha, 0 is no effect, 100 is complete control, read-out: Blackgrass plant response rating (0 to 100 scale)) was 0%. For the same compound, the “Wheat plant response rating” value [4, 21] was 0, the plant injury at 125 g/ha ([4]; Triticum aestivum, post-emergence, 240 h, 125 g ai/ha, 0 is no effect, 100 is complete control, read-out: Wheat plant response rating (0 to 100 scale)) was 0% and the “Foxtail, Giant plant response rating” value [5, 21] was 0. The pest or weed control at 125 g/ha ([5]; Setaria faberi, post-emergence, 240 h, 125 g ai/ha, 0 is no effect, 100 is complete control, read-out: Foxtail, Giant plant response rating (0 to 100 scale)) was 0%, the “Corn plant response rating” value (corn (Zea mays); [21]) was 0 and the plant injury at 125 g/ha (corn (Zea mays); Zea mays, post-emergence, 240 h, 125 g ai/ha, 0 is no effect, 100 is complete control, read-out: Corn plant response rating (0 to 100 scale)) was 0%. The “Barnyardgrass plant response rating” value [6, 21] was 0, the pest or weed control at 125 g/ha ([6]; Echinochloa crus-galli, post-emergence, 240 h, 125 g ai/ha, 0 is no effect, 100 is complete control, read-out: Barnyardgrass plant response rating (0 to 100 scale)) was 0% and the “Kochia plant response rating” value (kochia (Kochia scoparia) [7]; [21]) was 0. For the same compound, the pest or weed control at 125 g/ha (kochia (Kochia scoparia) [7]; Bassia scoparia, post-emergence, 240 h, 125 g ai/ha, 0 is no effect, 100 is complete control, read-out: Kochia plant response rating (0 to 100 scale)) was 0%, the “Ragweed plant response rating” value [8, 21] was 0 and the pest or weed control at 125 g/ha ([8]; Ambrosia artemisiifolia, post-emergence, 240 h, 125 g ai/ha, 0 is no effect, 100 is complete control, read-out: Ragweed plant response rating (0 to 100 scale)) was 0%. For the same compound, the “Pigweed plant response rating” value [9, 21] was 0, the pest or weed control at 125 g/ha ([9]; Amaranthus retroflexus, post-emergence, 240 h, 125 g ai/ha, 0 is no effect, 100 is complete control, read-out: Pigweed plant response rating (0 to 100 scale)) was 0% and the pest or weed control at 250 g/ha ([10]; Cyperus difformis, 312 h) was 0%. For the same compound, the pest or weed control at 250 g/ha ([11]; Echinochloa crus-galli, 312 h) was 0%, the plant injury at 250 g/ha (rice (Oryza sativa); Oryza sativa, 312 h) was 0% and the pest or weed control at 250 g/ha ([12]; Heteranthera limosa, 312 h) was 0%. The “Plant response rating, Ryegrass, Italian” value [13, 22] was 0, the pest or weed control at 125 g/ha ([13]; Lolium multiflorum, pre-emergence, 240 h, 125 g ai/ha, 0 to 100 scale (0 no effect, 100 complete control), read-out: Ryegrass, Italian plant response rating) was 0% and the “Plant response rating, Foxtail, Giant” value [14, 22] was 0. For the same compound, the pest or weed control at 125 g/ha ([14]; Setaria faberi, pre-emergence, 240 h, 125 g ai/ha, 0 to 100 scale (0 no effect, 100 complete control), read-out: Foxtail, Giant plant response rating) was 0%, the “Plant response rating, Barnyardgrass” value [15, 22] was 0 and the pest or weed control at 125 g/ha ([15]; Echinochloa crus-galli, pre-emergence, 240 h, 125 g ai/ha, 0 to 100 scale (0 no effect, 100 complete control), read-out: Barnyardgrass plant response rating) was 0%. The “Plant response rating, Kochia” value (kochia (Kochia scoparia) [16]; [22]) was 0, the pest or weed control at 125 g/ha (kochia (Kochia scoparia) [16]; Bassia scoparia, pre-emergence, 240 h, 125 g ai/ha, 0 to 100 scale (0 no effect, 100 complete control), read-out: Kochia plant response rating) was 0% and the “Plant response rating, Ragweed” value [17, 22] was 0. The pest or weed control at 125 g/ha ([17]; Ambrosia artemisiifolia, pre-emergence, 240 h, 125 g ai/ha, 0 to 100 scale (0 no effect, 100 complete control), read-out: Ragweed plant response rating) was 0%, the “Plant response rating, Pigweed” value [18, 22] was 0 and the pest or weed control at 125 g/ha ([18]; Amaranthus retroflexus, pre-emergence, 240 h, 125 g ai/ha, 0 to 100 scale (0 no effect, 100 complete control), read-out: Pigweed plant response rating) was 0%.
`N#Cc1cccc(Oc2ncc(Cl)cn2)c1NCCCC(F)(F)F` [Compound 146] was tested, and the “Ryegrass, Italian plant response rating” value [1, 19] was 0, the “Ryegrass, Italian plant response rating” value [1, 20] was 70 and the “Galium plant response rating” value [2, 19] was 70. For the same compound, the “Galium plant response rating” value [2, 20] was 100, the “Blackgrass plant response rating” value [3, 19] was 30 and the “Blackgrass plant response rating” value [3, 20] was 90. For the same compound, the “Wheat plant response rating” value [4, 19] was 20, the “Wheat plant response rating” value [4, 20] was 20 and the “Foxtail, Giant plant response rating” value [5, 19] was 30. For the same compound, the “Foxtail, Giant plant response rating” value [5, 20] was 90, the “Corn plant response rating” value (corn (Zea mays); [19]) was 20 and the “Corn plant response rating” value (corn (Zea mays); [20]) was 80. For the same compound, the “Barnyardgrass plant response rating” value [6, 19] was 30, the “Barnyardgrass plant response rating” value [6, 20] was 90 and the “Kochia plant response rating” value (kochia (Kochia scoparia) [7]; [19]) was 70. For the same compound, the “Kochia plant response rating” value (kochia (Kochia scoparia) [7]; [20]) was 100, the “Ragweed plant response rating” value [8, 19] was 0 and the “Ragweed plant response rating” value [8, 20] was 30. For the same compound, the “Pigweed plant response rating” value [9, 19] was 60, the “Pigweed plant response rating” value [9, 20] was 70 and the “Plant response rating, Sedge, Umbrella” value [10] was 85. For the same compound, the “Plant response rating, Barnyardgrass” value [11] was 40, the “Plant response rating, Rice” value (rice (Oryza sativa)) was 35 and the “Plant response rating, Ducksalad” value [12] was 100. The “Plant response rating, Ryegrass, Italian” value [13, 22] was 0, the “Plant response rating, Ryegrass, Italian” value [13, 23] was 50 and the “Plant response rating, Foxtail, Giant” value [14, 22] was 80. The “Plant response rating, Foxtail, Giant” value [14, 23] was 100, the “Plant response rating, Barnyardgrass” value [15, 22] was 20 and the “Plant response rating, Barnyardgrass” value [15, 23] was 100. The “Plant response rating, Kochia” value (kochia (Kochia scoparia) [16]; [22]) was 60, the “Plant response rating, Kochia” value (kochia (Kochia scoparia) [16]; [23]) was 80 and the “Plant response rating, Ragweed” value [17, 22] was 0. For the same compound, the “Plant response rating, Ragweed” value [17, 23] was 0, the “Plant response rating, Pigweed” value [18, 22] was 60 and the “Plant response rating, Pigweed” value [18, 23] was 100.
